The test system of series [1] is HBV (HepG2.117 cell line, inducibly HBV producing). Kind of series: Anti-HBV activity: intracellular HBV DNA by real-time PCR in HepG2.117 cells after 3 days of treatment. The format is cell-based, hepatitis B virus. The method in brief:
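Tet-off HepG2.117; HBV replication induced (no doxycycline); serial compound dilutions, 3 d; intracellular HBV DNA by real-time PCR, HBV-specific primers/probe.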

Another series in a line: in vitro. Type of series: cell-based. The settings on record: human, HepG2 or HepG2.117 cells, ATPlite, mean value. The method, boiled down: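 Luminescent ATP quantitation served as the viability endpoint following a 3- or 4-day incubation with test compounds.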
[2] abbreviates: Hepatitis B virus, HepG2.117, 72 h, HepG2.117 cells, intracellular HBV DNA by real-time PCR, 3 days of treatment, mean value; read-out: EC50 (μM, mean value).
Where [3] appears, read: 3-days incubation (not marked with *).
Where [4] appears, read: Hepatitis B virus, HepG2.117, 72 h, HepG2.117 cells, 3 days of treatment, intracellular HBV DNA by real-time PCR; mean value; read-out: EC50 (μM, mean value).
Setting [5] is: 3-days incubation (unmarked values).

Read-outs that look alike come from different tables or passages of the source. A value given as a limit tells only on which side of the number the result lay.

Experimental findings from patent US20230091047A1 (priority 2019, published 2023) are described below.

Regarding `CNC(=O)c1ccc(-n2c(NC(C)C)nc3c(c2=O)C[C@@H](C)N(C(=O)c2ccc(Cl)c(C(F)(F)F)c2)C3)c(OC)c1` [Compound C643], the EC50 in series [1] (setting [2]) was 0.05 µM. The same molecule registered a CC50 at 3 days in “in vitro” (setting [3]) of over 50 µM.
The corresponding values for `CNC(=O)c1ccc(-n2c(NCC(CO)C3CC3)nc3c(c2=O)C[C@@H](C)N(C(=O)c2ccc(Cl)c(Cl)c2)C3)cc1` (some centres unmarked) [Compound C482] are 8.34 µM and over 50 µM.
Take `COc1ccccc1-n1c(NCc2cncs2)nc2c(c1=O)CCN(C(=O)c1ccc(Cl)c(Cl)c1)C2` [Compound C19, 7-(3,4-dichlorobenzoyl)-3-(2-methoxyphenyl)-2-{[(1,3-thiazol-5-yl)methyl]amino}-5,6,7,8-tetrahydropyrido[3,4-d]pyrimidin-4(3H)-one]: in series [1] (setting [4]), the EC50 was found to be 8.77 µM. The same molecule came in with a CC50 at 3 days in the series “in vitro” (setting [5]) of over 50 µM.
In the case of `CNC(=O)c1ccc(-n2c(N[C@H](C)c3nc[nH]n3)nc3c(c2=O)C[C@@H](C)N(C(=O)c2ccc(Cl)c(Cl)c2)C3)cc1` (single isomer, unassigned) [Compound C439a], the EC50 in series [1] (setting [2]) was over 10 µM. In “in vitro” (setting [3]), this molecule yielded a cytotoxic concentration (CC50) at 3 days of over 50 µM.
As for `CNC(=O)c1ccc(-n2c(NC(C)C)nc3c(c2=O)C[C@@H](C)N(C(=O)c2ccc(Cl)c(Cl)c2)C3)cc1OC` [Compound C317, 4-[(6R)-7-(3,4-dichlorobenzoyl)-6-methyl-4-oxo-2-[(propan-2-yl)amino]-5,6,7,8-tetrahydropyrido[3,4-d]pyrimidin-3(4H)-yl]-2-methoxy-N-methylbenzamide], in series [1] (setting [4]), the half-maximal effective concentration (EC50) is 0.14 µM. The molecule also registered a CC50 at 3 days in the series “in vitro” (setting [5]) of over 50 µM.
Consider `Cc1cc(C(=O)N2CCc3c(nc(NC(C)C)n(-c4ccc(S(C)(=O)=O)cc4)c3=O)C2)ccc1Cl` [Compound C221, 7-(4-chloro-3-methylbenzoyl)-3-[4-(methanesulfonyl)phenyl]-2-[(propan-2-yl)amino]-5,6,7,8-tetrahydropyrido[3,4-d]pyrimidin-4(3H)-one], for which the EC50 in series [1] (setting [4]) is 1.58 µM. In addition, the CC50 at 3 days in the series “in vitro” (setting [5]) is over 50 µM.
Take `CNC(=O)c1ccc(-n2c(NCc3ncnn3-c3ccccc3)nc3c(c2=O)C[C@@H](C)N(C(=O)c2ccc(Cl)c(Cl)c2)C3)cc1` [Compound C553]: the concentration for a half-maximal effect (EC50) in series [1] (setting [2]) was determined as 23.7 µM. For the same molecule, the 50% cytotoxic concentration (CC50) at 3 days in “in vitro” (setting [3]) is over 50 µM.
For `CNC(=O)c1ccc(-n2c(N[C@H](C)c3cccnc3)nc3c(c2=O)C[C@@H](C)N(C(=O)c2ccc(Cl)c(Cl)c2)C3)cc1` (single isomer, unassigned) [Compound C377a], in series [1] (setting [2]), the EC50 stood at 0.82 µM. In the series “in vitro” (setting [3]), the cytotoxic concentration (CC50) at 3 days is over 50 µM.
The corresponding values for `CNC(=O)c1ccc(-n2c(NC(C)C)nc3c(c2=O)C[C@@H](C)N(C(=O)c2ccc(Br)c(C)c2)C3)cc1` [Compound C589] are 0.04 µM and over 50 µM.
In the case of `CC(C)Nc1nc2c(c(=O)n1-c1ccc(S(C)(=O)=O)cc1)CCN(C(=O)c1nc3ccccc3o1)C2` [Compound C362], the concentration giving a half-maximal response (EC50) in series [1] (setting [4]) was over 50 µM. Besides, in “in vitro” (setting [5]), the CC50 at 3 days is over 50 µM.
Regarding `COc1ccc(CNc2nc3c(c(=O)n2-c2ccc(-n4cccn4)cc2)CCN(C(=O)c2ccc(Cl)c(Cl)c2)C3)cc1` [Compound C143, 7-(3,4-dichlorobenzoyl)-2-{[(4-methoxyphenyl)methyl]amino}-3-[4-(1H-pyrazol-1-yl)phenyl]-5,6,7,8-tetrahydropyrido[3,4-d]pyrimidin-4(3H)-one], in series [1] (setting [4]), the EC50 amounted to 1.46 µM. The molecule also gave a CC50 at 3 days in the series “in vitro” (setting [5]) of over 50 µM.
For `COc1ccc(CNc2nc3c(c(=O)n2-c2cccc(C(=O)O)c2)CCN(C(=O)c2ccc(Cl)c(Cl)c2)C3)cc1` [Compound C75, 3-[7-(3,4-dichlorobenzoyl)-2-{[(4-methoxyphenyl)methyl]amino}-4-oxo-5,6,7,8-tetrahydropyrido[3,4-d]pyrimidin-3(4H)-yl]benzoic acid] the same measures were over 50 µM and over 50 µM.
As to `COc1ccc(CNc2nc3c(c(=O)n2C2CC2)CCN(C(=O)c2ccc(Cl)c(Cl)c2)C3)cc1` [Compound C70, 3-cyclopropyl-7-(3,4-dichlorobenzoyl)-2-{[(4-methoxyphenyl)methyl]amino}-5,6,7,8-tetrahydropyrido[3,4-d]pyrimidin-4(3H)-one], the EC50 in series [1] (setting [4]) was found to be 10.8 µM. In the series “in vitro” (setting [5]), this molecule yielded a CC50 at 3 days of 23.1 µM.
For the molecule `CNC(=O)c1ccc(-n2c(N[C@@H](C)c3ccccc3)nc3c(c2=O)C[C@@H](C)N(C(=O)c2ccc(Cl)c(Cl)c2)C3)cc1` [Compound C253, 4-[(6R)-7-(3,4-dichlorobenzoyl)-6-methyl-4-oxo-2-{[(1S)-1-phenylethyl]amino}-5,6,7,8-tetrahydropyrido[3,4-d]pyrimidin-3(4H)-yl]-N-methylbenzamide], the concentration giving a half-maximal response (EC50) in series [1] (setting [4]) worked out at 0.1 µM. This molecule also registered a CC50 at 3 days in “in vitro” (setting [5]) of 22.9 µM.
For `CC(C)Nc1nc2c(c(=O)n1-c1ccc(S(C)(=O)=O)cc1)CCN(C(=O)c1ccc3nccn3c1)C2` [Compound C359] the same measures were over 50 µM and over 50 µM.
For `CCNc1nc2c(c(=O)n1-c1ccccc1OC)CCN(C(=O)c1ccc(Cl)c(Cl)c1)C2` [Compound C38, 7-(3,4-dichlorobenzoyl)-2-(ethylamino)-3-(2-methoxyphenyl)-5,6,7,8-tetrahydropyrido[3,4-d]pyrimidin-4(3H)-one] the same measures were 6.87 µM and over 50 µM.
Turning to `CNC(=O)c1ccc(-n2c(NC(C)C)nc3c(c2=O)C[C@@H](C)N(C(=O)c2ccc(C(C)(F)F)cc2)C3)cc1` [Compound C573], the concentration for a half-maximal effect (EC50) in series [1] (setting [2]) was 0.32 µM. Moreover, the CC50 at 3 days in “in vitro” (setting [3]) was over 50 µM.
On to `C[C@@H]1Cc2c(nc(NC3(c4ccncc4)CC3)n(-c3ccc(S(C)(=O)=O)cc3)c2=O)CN1C(=O)c1ccc(Cl)c(Cl)c1` [Compound C198, (6R)-7-(3,4-dichlorobenzoyl)-3-[4-(methanesulfonyl)phenyl]-6-methyl-2-{[1-(pyridin-4-yl)cyclopropyl]amino}-5,6,7,8-tetrahydropyrido[3,4-d]pyrimidin-4(3H)-one], for which the concentration giving a half-maximal response (EC50) in series [1] (setting [4]) was found to be 3.25 µM. In the series “in vitro” (setting [5]), this molecule registered a CC50 at 3 days of over 50 µM.
As to `CNC(=O)c1ccc(-n2c(NCc3ccc(-n4cncn4)cc3)nc3c(c2=O)C[C@@H](C)N(C(=O)c2ccc(Cl)c(Cl)c2)C3)cc1` [Compound C555], the EC50 in series [1] (setting [2]) was found to be 1.33 µM. Besides, the half-maximal cytotoxic concentration (CC50) at 3 days in the series “in vitro” (setting [3]) is over 50 µM.
As for `CC[C@@H]1Cc2c(nc(NC(C)C)n(-c3ccc(S(C)(=O)=O)cc3)c2=O)CN1C(=O)c1ccc(Cl)c(Cl)c1` (single isomer, unassigned) [Compound C158A, (6*R)-7-(3,4-dichlorobenzoyl)-6-ethyl-3-[4-(methanesulfonyl)phenyl]-2-[(propan-2-yl)amino]-5,6,7,8-tetrahydropyrido[3,4-d]pyrimidin-4(3H)-one], the EC50 in series [1] (setting [4]) came to 0.91 µM. This molecule also came in with a CC50 at 3 days in the series “in vitro” (setting [5]) of over 50 µM.
For `CNC(=O)c1cnc(-n2c(NC(C)C)nc3c(c2=O)C[C@@H](C)N(C(=O)c2ccc(Cl)c(Cl)c2)C3)cn1` [Compound C288, 5-[(6R)-7-(3,4-dichlorobenzoyl)-6-methyl-4-oxo-2-[(propan-2-yl)amino]-5,6,7,8-tetrahydropyrido[3,4-d]pyrimidin-3(4H)-yl]-N-methylpyrazine-2-carboxamide], in series [1] (setting [4]), the EC50 is 0.07 µM. The molecule further came in with a CC50 at 3 days in “in vitro” (setting [5]) of over 50 µM.
For the molecule `CNC(=O)c1cc(-n2c(N[C@@H](C)c3ccc(C(F)(F)F)cc3)nc3c(c2=O)C[C@@H](C)N(C(=O)c2ccc(Cl)c(Cl)c2)C3)nn1C` [Compound C623], the EC50 in series [1] (setting [2]) was found to be 0.04 µM. This molecule registered a 50% cytotoxic concentration (CC50) at 3 days in “in vitro” (setting [3]) of over 50 µM.
For `COCCn1c(NCc2ccccc2)nc2c(c1=O)CCN(C(=O)c1ccc(Cl)c(Cl)c1)C2` [Compound C28, 2-(benzylamino)-7-(3,4-dichlorobenzoyl)-3-(2-methoxyethyl)-5,6,7,8-tetrahydropyrido[3,4-d]pyrimidin-4(3H)-one], the concentration giving a half-maximal response (EC50) in series [1] (setting [4]) turned out to be 9.1 µM. In addition, in “in vitro” (setting [5]), the 50% cytotoxic concentration (CC50) at 3 days was 25.2 µM.
Turning to `CNC(=O)[C@H]1CC[C@@H](n2c(NC(C)C)nc3c(c2=O)C[C@@H](C)N(C(=O)c2ccc(Cl)c(Cl)c2)C3)CC1` [Compound C280, cis-4-[(6R)-7-(3,4-dichlorobenzoyl)-6-methyl-4-oxo-2-[(propan-2-yl)amino]-5,6,7,8-tetrahydropyrido[3,4-d]pyrimidin-3(4H)-yl]-N-methylcyclohexane-1-carboxamide], the 50% effective concentration (EC50) in series [1] (setting [4]) came out at 0.1 µM. The cytotoxic concentration (CC50) at 3 days in the series “in vitro” (setting [5]) is 24.6 µM.
In the case of `CNC(=O)C12CC(n3c(NC(C)C)nc4c(c3=O)C[C@@H](C)N(C(=O)c3ccc(Cl)c(Cl)c3)C4)(C1)C2` [Compound C261, 3-[(6R)-7-(3,4-dichlorobenzoyl)-6-methyl-4-oxo-2-[(propan-2-yl)amino]-5,6,7,8-tetrahydropyrido[3,4-d]pyrimidin-3(4H)-yl]-N-methylbicyclo[1.1.1]pentane-1-carboxamide], the 50% effective concentration (EC50) in series [1] (setting [4]) came out at 0.34 µM. The same molecule returned a cytotoxic concentration (CC50) at 3 days in “in vitro” (setting [5]) of over 50 µM.
Take `COc1ccccc1-n1c(N2CCOCC2)nc2c(c1=O)CCN(C(=O)c1ccc(Cl)c(Cl)c1)C2` [Compound C40, 7-(3,4-dichlorobenzoyl)-3-(2-methoxyphenyl)-2-(morpholin-4-yl)-5,6,7,8-tetrahydropyrido[3,4-d]pyrimidin-4(3H)-one]: the EC50 in series [1] (setting [4]) turned out to be 11 µM. In “in vitro” (setting [5]), this molecule yielded a half-maximal cytotoxic concentration (CC50) at 3 days of over 50 µM.
As to `COc1ccc(CNc2nc3c(c(=O)n2-c2ccnnc2)CCN(C(=O)c2ccc(Cl)c(Cl)c2)C3)cc1` [Compound C135, 7-(3,4-dichlorobenzoyl)-2-{[(4-methoxyphenyl)methyl]amino}-3-(pyridazin-4-yl)-5,6,7,8-tetrahydropyrido[3,4-d]pyrimidin-4(3H)-one], in series [1] (setting [4]), the EC50 was 1.13 µM. In “in vitro” (setting [5]), this molecule showed a 50% cytotoxic concentration (CC50) at 3 days of 23.3 µM.
As for `CNC(=O)c1ccc(-n2c(NC(C)C)nc3c(c2=O)C[C@@H](C)N(C(=O)c2n[nH]c4ccc(Cl)cc24)C3)cc1` [Compound C473], the EC50 in series [1] (setting [2]) is over 25 µM. For the same molecule, in the series “in vitro” (setting [3]), the 50% cytotoxic concentration (CC50) at 3 days was over 50 µM.
